In publication PMC11394424, “The RAL Small G Proteins Are Clinically Relevant Targets in Triple Negative Breast Cancer” (Cancers, 2024) one finds Kd data, which are given here for one substance.

In the test the target is T1, RALA (Homo sapiens, UniProt P11233).
T1 construct: recombinant RALA, site-specifically biotinylated on the N-terminus
T1 sequence (P11233 1-203): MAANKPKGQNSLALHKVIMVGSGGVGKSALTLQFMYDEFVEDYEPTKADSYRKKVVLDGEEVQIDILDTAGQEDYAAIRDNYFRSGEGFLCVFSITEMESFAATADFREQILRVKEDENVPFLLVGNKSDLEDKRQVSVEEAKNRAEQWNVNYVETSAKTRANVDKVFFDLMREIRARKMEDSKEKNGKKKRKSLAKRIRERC
Kind of test: SPR (Biacore 8K, steady-state affinity, biotinylated RALA on SA chip). Type of test: binding.

Substance OSURALi gave a Kd of 948 nM. That is a sub-micromolar value.

Broadly, the Kd is the concentration at which binding is half-saturated.
